Assay results: paper PMC5706701, “Development of a homogenous high-throughput assay for inositol hexakisphosphate kinase 1 activity” (PLoS ONE, 2017)
Where a name gives a salt, the structure may show the parent alone.

Molecular target: T1, Human IP6K1 (Homo sapiens, UniProt Q92551)
T1 construct: GST (N, cleaved yes); made in house; host or cells: C43 E. coli, pGEX-6P-2
Test: IP6K1 high-throughput screen of the Sigma LOPAC (ADP-Glo Max, single point);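 also: final compound concentration 10µM in 5% DMSO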
Format: biochemical

[1] = LOPAC single-point screen, ADP-Glo Max luminescence raw signal per well
[2] = LOPAC single-point screen, Z-score relative to plate average and StDev
[3] = LOPAC single-point screen, ADP-Glo Max raw signal per well
[4] = LOPAC single-point screen, Z-score from raw signal with plate average and StDev
[5] = LOPAC single-point screen, Z-score against plate average and StDev
[6] = LOPAC single-point screen, Z-score from plate average and StDev
[7] = Sigma LOPAC single-point screen, ADP-Glo Max raw signal per well
[8] = Sigma LOPAC single-point screen, Z-score from plate average and StDev

T1 sequence (Q92551 whole entry): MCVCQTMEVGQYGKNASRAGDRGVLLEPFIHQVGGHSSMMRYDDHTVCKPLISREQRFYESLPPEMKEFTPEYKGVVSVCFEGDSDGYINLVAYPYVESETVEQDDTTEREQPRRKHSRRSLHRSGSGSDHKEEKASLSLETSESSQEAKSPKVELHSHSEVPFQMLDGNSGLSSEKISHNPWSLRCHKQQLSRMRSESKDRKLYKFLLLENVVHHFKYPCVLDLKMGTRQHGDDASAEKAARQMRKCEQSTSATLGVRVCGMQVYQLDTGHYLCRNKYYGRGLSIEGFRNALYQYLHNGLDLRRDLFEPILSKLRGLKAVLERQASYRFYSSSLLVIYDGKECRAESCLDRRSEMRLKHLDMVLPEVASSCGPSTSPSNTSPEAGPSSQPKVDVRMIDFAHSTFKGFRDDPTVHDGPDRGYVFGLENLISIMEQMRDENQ

CCCC(C(=O)OCCN(CC)CC)(c1ccccc1)c1ccccc1.Cl [SKF-525A hydrochloride]
Raw Signal [1]: 51241
Z-score [2]: -0.5297

Cc1cc(NC(=O)Nc2ccc3c(ccn3C)c2)sn1 [SB 204741]
Raw Signal [3]: 55947
Z-score [4]: -0.3463

N=c1ccn2c(n1)O[C@H]1[C@H](O)[C@@H](CO)O[C@H]12 [Ancitabine hydrochloride]
Raw Signal [3]: 57428
Z-score [5]: -0.08544

Br.CN1CCc2cc(O)c(O)cc2C(c2ccccc2)C1 (stereo not shown) [SKF 75670 hydrobromide]
Raw Signal [3]: 56113
Z-score [5]: 0.01733

CCCCCCCCCCCCCCCC(=O)NCC(COP(=O)([O-])OCC[N+](C)(C)C)OCC (racemic)
Raw Signal [1]: 63126
Z-score [6]: 1.616

CC(C)NC[C@@H](O)COc1ccc(CC(N)=O)cc1 [R(+)-Atenolol]
Raw Signal [1]: 54301
Z-score [2]: -0.6362

CNc1ccc2oc(C[C@H]3O[C@@]4(CC[C@H]3C)O[C@H]([C@H](C)C(=O)c3ccc[nH]3)[C@H](C)C[C@H]4C)nc2c1C(=O)O [Calcimycin]
Raw Signal [1]: 66206
Z-score [6]: 1.461

NS(=O)(=O)c1cc(C(=O)O)c(NCc2ccco2)cc1Cl [Furosemide]
Raw Signal [3]: 53546
Z-score [4]: -0.3292

C[n+]1cc2c3c(ccc2c2ccc4cc5c(cc4c21)OCO5)OCO3 [Sanguinarine chloride]
Raw Signal [1]: 52602
Z-score [2]: -0.6648

NC(C(=O)O)C(O)C(=O)O (racemic) [DL-threo-beta-hydroxyaspartic acid]
Raw Signal [1]: 64938
Z-score [6]: 1.984

N.N.N.N.N.N.N.N.N.N.N.N.N.N.[Cl-].[Cl-].[Cl-].[Cl-].[Cl-].[Cl-].[O-2].[O-2].[Ru+3].[Ru+3].[Ru+4] [Ruthenium red]
Raw Signal [1]: 52989
Z-score [2]: -0.5896

CC(CCc1ccccc1)NC(C)C(O)c1ccc(O)cc1 (stereo not shown) [Nylidrin hydrochloride]
Raw Signal [3]: 56232
Z-score [5]: 0.3089

CCN(CCCl)Cc1ccccc1Br.Cl [DSP-4 hydrochloride]
Raw Signal [3]: 57186
Z-score [4]: -0.1281

CC(C)(C(=O)O)c1ccc(C(O)CCCN2CCC(C(O)(c3ccccc3)c3ccccc3)CC2)cc1 (stereo not shown) [Fexofenadine hydrochloride]
Raw Signal [7]: 58731
Z-score [8]: 0.7238

Clc1ccccc1C(c1ccccc1)(c1ccccc1)n1ccnc1 [Clotrimazole]
Raw Signal [7]: 61041
Z-score [8]: 0.5509

Cc1ccc(Cl)c(Nc2ccccc2C(=O)O)c1Cl [Meclofenamic acid sodium]
Raw Signal [7]: 59966
Z-score [8]: 0.9363

NC(CCP(=O)(O)O)C(=O)O (racemic) [(±)-2-Amino-4-phosphonobutyric acid]
Raw Signal [3]: 55594
Z-score [4]: -0.4085

CC(=O)[C@H]1CC[C@H]2[C@@H]3CCC4=CC(=O)CC[C@]4(C)[C@H]3CC[C@]12C [Progesterone]
Raw Signal [3]: 53663
Z-score [4]: -0.1227

O=S(=O)(c1cccc2c(I)cccc12)N1CCCNCC1 [ML-7]
Raw Signal [1]: 65221
Z-score [6]: 1.8193

COC(=O)C1=C(C)NC(C)=C(C(=O)OCCN(C)Cc2ccccc2)C1c1cccc([N+](=O)[O-])c1 (stereo not shown) [Nicardipine hydrochloride]
Raw Signal [1]: 66364
Z-score [6]: 2.011

Nc1ccc2c3c(cccc13)C(=O)NC2=O [4-Amino-1,8-naphthalimide]
Raw Signal [1]: 55002
Z-score [2]: -0.5127

COc1ccc2c(c1O)-c1cccc3c1[C@@H](C2)N(C)CC3.Cl [R(-)-Apocodeine hydrochloride]
Raw Signal [1]: 50869
Z-score [2]: -0.8729

COc1ccccc1N1CCNCC1.Cl
Raw Signal [3]: 57311
Z-score [5]: 0.2501

C[C@@H]1O[C@@H]1P(=O)(O)O [Phosphomycin disodium]
Raw Signal [1]: 62776
Z-score [6]: 1.408

O=C(c1ccc(OCCN2CCCCC2)cc1)c1c(-c2ccc(O)cc2)sc2cc(O)ccc12 [Raloxifene hydrochloride]
Raw Signal [3]: 54124
Z-score [4]: -0.3691

C[C@@H](NC(=O)/C(C#N)=C/c1ccc(O)c(O)c1)c1ccccc1 [Tyrphostin AG 527]
Raw Signal [3]: 54153
Z-score [4]: -0.3635

CN(C)C(=O)C(CCN1CCC(O)(c2ccc(Cl)cc2)CC1)(c1ccccc1)c1ccccc1 [Loperamide hydrochloride]
Raw Signal [1]: 51056
Z-score [2]: -0.5608

CCOC(=O)N1CCC(=C2c3ccc(Cl)cc3CCc3cccnc32)CC1 [Loratadine]
Raw Signal [1]: 49648
Z-score [2]: -0.7974

C=CCN1CC[C@]23c4c5ccc(O)c4O[C@H]2C(=O)CC[C@@]3(O)[C@H]1C5 [Naloxone hydrochloride]
Raw Signal [3]: 55041
Z-score [5]: 0.1088

CCC(=O)c1ccc2c(c1)N(CCCN(C)C)c1ccccc1S2 [Propionylpromazine hydrochloride]
Raw Signal [3]: 56049
Z-score [5]: 0.004895

CCC(C)N(C)C(=O)c1cc2ccccc2c(-c2ccccc2Cl)n1 (stereo not shown) [PK 11195]
Raw Signal [1]: 54307
Z-score [2]: -0.6351

COC(=O)C1=C(C)NC(C)=C(C(=O)OC)C1c1ccccc1[N+](=O)[O-] [Nifedipine]
Raw Signal [7]: 59653
Z-score [8]: 0.8837
